Reference: PMC4516231 (Journal of pharmaceutical sciences, 2012)
In brackets after ≈: the same amount, converted by molar mass.

What was measured:
[1] = Aqueous solubility in distilled–deionized water; type: physicochemical; settings: for Reduction in solubility: DDW, relative to CDF; for Reduction in solubility / Solubility in DDW: 37°C; for Solubility in DDW: distilled–deionized water, 24 h
Tissue = type: in vitro ADME, rabbit; settings: relative to parent CDF

| SMILES | Reduction in solubility [1] | Solubility in DDW [1] [mg/mL] | Fold Increase in retina–choroid partition coefficient (Tissue) [fold] | solubility at 24 h ([1]; distilled-deionized water) [mg/mL] |
| --- | --- | --- | --- | --- |
| CCCCCCOP1(=O)COC(Cn2ccc(N)nc2=O)CO1 (stereo not drawn) [C6-cCDF, C6-cyclic Cidofovir] | about 56 fold | 1.27 ± 0.48 (≈ 3.68 mM) | – | – |
| Nc1ccn(C[C@@H](CO)OCP(=O)(O)O)c(=O)n1 [CDF, Cidofovir, reference compound] | – | – | 1 | 72.4 ± 3.33 (≈ 259 mM) |
| CCCCCCCCCCCCOP1(=O)CO[C@@H](Cn2ccc(N)nc2=O)CO1 (stereo partly drawn) [C12-cCDF, C12-cyclic Cidofovir] | ~74 fold | 0.95 ± 0.37 (≈ 2.21 mM) | – | – |
